Values joined by “and” are separate entries in the source; they are usually repeats but may differ in a detail not shown here. Equal values may be shown once.

The test addresses SARS-CoV-2 Main Protease (SARS-CoV-2) (UniProt P0DTD1).
In the case of `O=C(Cc1cc(Cl)cc(Nc2ccc(SC(F)(F)F)cc2)c1)Nc1cncc2ccccc12`, the IC50 stood at 1.84 µM. For `O=C(NCCc1cccc(F)c1)C(c1cccnc1)N(C(=O)c1cocn1)C1CCN(c2ccccc2F)C1` (centres undefined) the value was more than 99.5 µM; for `COc1ncncc1C(C(=O)NCCc1cccc(F)c1)N(C(=O)c1cocn1)c1ccc(C(C)(C)C)cc1` (centres undefined), 8.43 µM. `CC1NCCn2c(-c3nc(-c4cnc5cnccn45)no3)ccc21` (centres undefined) gave a half-maximal inhibitory concentration (IC50) of more than 99.5 µM. In the case of `COC1CCC2OCCN(C(=O)c3ccc4nc[nH]c4c3)C2C1` (centres undefined) it was more than 99.5 µM. In the case of `N#CC1(CS(=O)(=O)N2Cc3ccc(Cl)cc3C3(CCN(c4cncc5ccccc45)C3=O)C2)CCS(=O)(=O)CC1` (centres undefined) it was 0.211 µM; in that of `O=C(NCCc1ccccc1)[C@@H]1CN(C(=O)CCl)CCN1S(=O)(=O)c1ccsc1` (stereo in doubt), 1.28 µM; in that of `CC(C)(C)c1ccc(N(C(=O)c2cccc(C#N)c2)C(C(=O)NCCc2cccc(F)c2)c2cccnc2)cc1` (centres undefined), more than 99.5 µM. For `O=C(Cc1cccc(Cl)c1)Nc1cncc2nc[nH]c12` the value was 13.3 µM. With `Cc1cccc(C2CCCCN2C(=O)C(C)c2cncnc2)c1C` (centres undefined), the IC50 was more than 99.5 µM.

`Cc1ccncc1NC(=O)Cc1cc(Cl)cc(OCc2ncn[nH]2)c1`: the IC50 amounted to 37 µM. In the case of `Cc1cc(N)ncc1NC(=O)Cc1cccc(Cl)c1` it was more than 99.5 µM; in that of `Cn1ncc2c(NC(=O)Cc3cccc(Cl)c3)cncc21`, 34 µM; in that of `O=C(CCl)N1CCCN(S(=O)(=O)c2cc(F)ccc2F)CC1`, 12.1 µM.

On to `O=C(Cc1cc(Cl)cc(Nc2c(Br)cncc2[N+](=O)[O-])c1)Nc1cncc2ccccc12`, for which the IC50 was found to be 1.83 µM. Compound `COC1(C(=O)Nc2cncc3ccncc23)CCOc2ccc(Cl)cc21` (centres undefined) displayed an IC50 of 0.832 µM. In the case of `Cc1cc(C)nc(NC2CCN(C(=O)CCl)CC2)n1` it was 27.6 µM; in that of `C=CC(=O)N(c1ccc(C(F)(F)F)cc1)C(C(=O)NCCc1cccc(F)c1)c1cncc(C)c1` (centres undefined), 24.3 µM.

For the compound `CC(C)NS(=O)(=O)N1Cc2ccc(Cl)cc2C(C(=O)Nc2cncc3ccccc23)C1` (centres undefined), the IC50 amounted to 0.195 µM. In turn, `Cc1cc(C(=O)N2Cc3ccc(Cl)cc3C3(CCN(c4cncc5ccccc45)C3=O)C2)n(C)n1` (centres undefined) returned an IC50 of 0.464 µM. For `Cc1nn2c(CNc3ccc(Cn4cncn4)cc3)c(C)nc2s1` the value was more than 99.5 µM; for `O=C(CCc1cccc(Cl)c1)Nc1cncc2ccccc12`, 20.8 µM. Compound `O=C(Cc1cccc(Cl)c1)Nc1cncc2oncc12` showed an IC50 of 50.6 µM. `O=C(Cc1cc(Cl)cc(NCCc2ccc(C(F)(F)F)cc2)c1)Nc1cncc2ccccc12` yielded an IC50 of 5.57 µM. In the case of `O=C(Cc1cc(Cl)cc(Nc2cccc(C(F)(F)F)c2F)c1)Nc1cncc2ccccc12` it was 1.84 µM; in that of `CCn1c2ccccc2c2cc(Nc3cc(Cl)cc(CC(=O)Nc4cncc5ccccc45)c3)ccc21`, 2.73 µM; in that of `O=S(=O)(Nc1cc2c(cc1OCc1ccccc1)OCO2)c1ccccc1`, more than 99.5 µM. For `O=C(Cc1cccc(Cl)c1)Nc1cncc2cc(C(F)F)ccc12` the value was 2.25 µM; for `CCOC(=O)c1cccc(NC(=O)[C@@H]2CN(C(=O)CCl)CCN2S(=O)(=O)c2ccsc2)c1` (stereo in doubt), 0.459 µM. For `CCCCN1C(=O)C(=O)c2cc(Br)cc(C)c21` the value was more than 99.5 µM; for `COc1cc2cncc(NC(=O)Cc3cccc(Cl)c3)c2cc1OC`, more than 99.5 µM. `O=C(NCCCc1nc(=O)[nH][nH]1)C1(c2ccc(F)cc2F)CCC1` registered a 50% inhibitory concentration (IC50) of more than 99.5 µM. For `CN(C)c1ccc(N(Cc2ccsc2)C(=O)Cn2nnc3ccccc32)cc1` the value was 1.79 µM; for `C[C@H]1CN(c2cc(Cl)cc(CC(=O)Nc3cncc4ccccc34)c2)CCN1C(=O)OC(C)(C)C` (stereo in doubt), 2.61 µM; for `O=C1CCc2cc(C(=O)N3CCC(C4CCNC4)CC3)ccc2N1` (centres undefined), more than 99.5 µM.

With `CN1C(=O)CCc2cc(N(C(=O)c3cnc[nH]3)C(C(=O)NCCc3cccc(F)c3)c3cccnc3)ccc21` (centres undefined), the IC50 is more than 99 µM. Compound `O=C(Cc1cc(Cl)cc(N2CCN(c3nsc4ccccc34)CC2)c1)Nc1cncc2ccccc12` came in with an IC50 of 3.34 µM. `O=C(Cc1cccc(Cl)c1)Nc1cncc2c1CCC2` gave an IC50 of 5.16 µM. `C=CC(=O)N(c1ccc(C(F)(F)F)cc1)C(C(=O)Nc1c(C)cccc1CC)c1cccnc1` (centres undefined) yielded an IC50 of 97.8 µM. `O=C(Nc1cncc2ccccc12)C1CN(C(=O)C2CC2)Cc2ccc(Cl)cc21` (centres undefined): the IC50 worked out at 0.487 µM. As for `COc1ccc(CNc2cc(Cl)cc(CC(=O)Nc3cncc4ccccc34)c2)c(OC)c1`, the IC50 came to 3.37 µM. In the case of `Cc1ccncc1NC(=O)Cc1cncc(Cl)c1` it was 46.4 µM. For `Cc1ccc(Nc2cc(Cl)cc(CC(=O)Nc3cncc4ccccc34)c2)c(Br)c1` the value was 1.9 µM; for `Cc1c(NC(=O)C2CCOc3ccc(Cl)cc32)cncc1N(C)C` (centres undefined), more than 99.5 µM; for `COc1ccc(C2CC(c3cccs3)=NN2C(=O)CCl)cc1OC` (centres undefined), 1.75 µM and 2 µM. In the case of `Cc1noc(C)c1S(=O)(=O)N1CCN(C(=O)CCl)CC1` it was 4.06 µM. Compound `O=C(Nc1cncc2ccccc12)C1CN(S(=O)(=O)CC2CC2)Cc2ccc(Cl)cc21` (centres undefined) gave a half-maximal inhibitory concentration (IC50) of 0.168 µM. In the case of `CC(C)(C)c1ccc(N(C(=O)c2ncc[nH]2)C(C(=O)NCCc2cccc(F)c2)c2cccnc2)cc1` (centres undefined) it was 5.29 µM.

The compound `CS(=O)(=O)N1CCc2ccc(CN3CCN(C(=O)CCl)CC3)cc2C1` came in with an IC50 of 40.2 µM. For `Clc1cccc2c1OCCC2Nc1ncccn1` (centres undefined) the value was more than 99.5 µM. In the case of `Cc1ccncc1NC(=O)CCc1cccc(Cl)c1` it was more than 99.5 µM; in that of `Cc1cccc2nc(NC3CCN(c4ccc5nncn5n4)C3)sc12` (centres undefined), more than 99.5 µM. In the case of `Cc1cc(C)c(C)c(S(=O)(=O)N2CCN(C(=O)c3cc(=O)[nH]c4ccccc34)CC2)c1C` it was 8.19 µM and 8.74 µM; in that of `O=C(Cc1cc(Cl)cc(NCc2ccc(I)cc2)c1)Nc1cncc2ccccc12`, 4.37 µM; in that of `CNC(=O)CN1C[C@]2(CC(=O)N(c3cncc4ccccc34)C2=O)c2cc(Cl)ccc2C1=O` (stereo in doubt), 84.6 µM.

Regarding `Cc1cc2ncc(C(=O)Nc3ccc4oc(C)nc4c3)c(C)n2n1`, the IC50 is more than 99.5 µM.

The compound `CC(C)(C)c1ccc(N(C(=O)c2cc(CO)n[nH]2)C(C(=O)NCCc2cccc(F)c2)c2cccnc2)cc1` (centres undefined) displayed an IC50 of 18.8 µM. In the case of `CC(C)(O)c1cccc(N(C(=O)c2cocn2)C(C(=O)NCCc2cccc(F)c2)c2cccnc2)c1` (centres undefined) it was more than 99.5 µM; in that of `CN(C(=O)OC(C)(C)C)[C@H]1CCN(c2cc(Cl)cc(CC(=O)Nc3cncc4ccccc34)c2)C1` (stereo in doubt), 4.21 µM; in that of `CSCCCNC(=O)C(c1cccnc1)N(C(=O)c1cocn1)c1ccc(C(C)(C)C)cc1` (centres undefined), 3.85 µM.

The compound `O=C(CCc1nc2ccccc2[nH]1)N1CCC(CCc2ccccc2)CC1` returned an IC50 of more than 99.5 µM. `C[C@H](C/C=C/C(C)(C)O)[C@H]1CC[C@@]2(C)[C@@H]3C=C[C@@]45OC[C@]3(CC[C@]12C)[C@@H]4CC[C@H](O)C5(C)C` (stereo in doubt) gave an IC50 of more than 99.5 µM. `COc1ccccc1CN(C(=O)c1cnc[nH]1)C(C(=O)NCCc1cccc(F)c1)c1cccnc1` (centres undefined) gave a half-inhibitory concentration (IC50) of more than 99 µM. In the case of `O=C(NC1(C(=O)Nc2cncc3ccccc23)CCOc2ccc(Cl)cc21)C1CCC(C(=O)N2CCCC2)O1` (centres undefined) it was 2.81 µM.

Values taken from the COVID Moonshot data (paper PMC7615835).
